Results reported in PubChem BioAssay AID298 (DTP/NCI, 2004).
Values joined by “and” are separate entries in the source; they are usually repeats but may differ in a detail not shown here. Equal entries are not always repeated. Inconclusive results are not listed.

System: MX-1 breast xenograft, intrarenal, nude mice, tumor weight
Experiment: NCI In Vivo Anticancer Drug Screen. Data for tumor model Human Mammary Carcinoma MX-1 Xenograft (intrarenal inoculation) in NU/NU BALB/C (nude) mice
Conditions: endpoint: mean tumor weight change, higher = larger tumour
Outline: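 Mice w/ transplanted tumors, drug vs vehicle; endpoint survival or tumor size; value = T/C.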

[1] = dose: 150.0 mg/kg/injection, schedule: Q04DX003 (ip), vehicle: saline with Tween-80
[2] = dose: 300.0 mg/kg/injection, schedule: Q04DX003 (ip), vehicle: saline with Tween-80
[3] = dose: 50.0 mg/kg/injection, schedule: Q04DX003 (sc), vehicle: Klucel (hydroxypropylcellulose) (HPC)
[4] = dose: 100.0 mg/kg/injection, schedule: Q04DX003 (sc), vehicle: Klucel (hydroxypropylcellulose) (HPC)
[5] = dose: 100.0 mg/kg/injection, schedule: Q04DX003 (ip), vehicle: Klucel (hydroxypropylcellulose) (HPC)
[6] = dose: 200.0 mg/kg/injection, schedule: Q04DX003 (ip), vehicle: Klucel (hydroxypropylcellulose) (HPC)
[7] = dose: 50.0 mg/kg/injection, schedule: Q04DX003 (sc), vehicle: saline

Compound: COc1ccc(C=C(C(=O)CCN(C)C)C(=O)CCN(C)C)cc1
- T/C (dose: 50.0 mg/kg/injection, schedule: Q04DX003 (ip), vehicle: saline): 93 % of control
- T/C (dose: 100.0 mg/kg/injection, schedule: Q04DX003 (ip), vehicle: saline): 101 % of control
- T/C (dose: 200.0 mg/kg/injection, schedule: Q04DX003 (ip), vehicle: saline): 96 % of control

Compound: CCCCCCCCCCCCCCCCCCOCC(CO)OC (configuration not stated)
- T/C [1]: 117 % of control
- T/C [2]: 93 % of control
- T/C (dose: 600.0 mg/kg/injection, schedule: Q04DX003 (ip), vehicle: saline with Tween-80): 81 % of control
- T/C (dose: 1200.0 mg/kg/injection, schedule: Q04DX003 (ip), vehicle: saline with Tween-80): 46 % of control

Compound: CC(=O)OCC(=O)[C@@]12OC(C)(C)O[C@@H]1C[C@H]1[C@@H]3CC(C=O)=C4C=C(OCCCl)CC[C@]4(C)[C@@]3(F)[C@@H](O)C[C@@]12C
- T/C (dose: 25.0 mg/kg/injection, schedule: Q04DX003 (sc), vehicle: Klucel (hydroxypropylcellulose) (HPC)): 93 % of control
- T/C [3]: 81 % of control
- T/C [4]: 71 % of control
- T/C (dose: 200.0 mg/kg/injection, schedule: Q04DX003 (sc), vehicle: Klucel (hydroxypropylcellulose) (HPC)): 78 % of control

Compound: CCCNC1=C(C)C(=O)C2=C(C1=O)[C@H](COC(N)=O)[C@]1(OC)[C@@H]3N[C@@H]3CN21
- T/C (dose: 3.0 mg/kg/injection, schedule: Q04DX003 (sc), vehicle: saline): 13 % of control
- T/C (dose: 6.0 mg/kg/injection, schedule: Q04DX003 (sc), vehicle: saline): -77 % of control
- T/C (dose: 12.0 mg/kg/injection, schedule: Q04DX003 (sc), vehicle: saline): -100 % of control

Compound: CC(=O)OCN(C)C=O
- T/C (dose: 300.0 mg/kg/injection, schedule: Q01DX010 (ip), vehicle: suspension in saline): 105 % of control
- T/C (dose: 600.0 mg/kg/injection, schedule: Q01DX010 (ip), vehicle: suspension in saline): 75 % of control
- T/C (dose: 600.0 mg/kg/injection, schedule: Q01DX010 (sc), vehicle: saline): 88 % of control
- T/C (dose: 1200.0 mg/kg/injection, schedule: Q01DX010 (sc), vehicle: saline): 104 % of control
- T/C (dose: 2400.0 mg/kg/injection, schedule: Q01DX010 (sc), vehicle: saline): 78 % of control

Compound: OC(CBr)C(O)C(O)C(O)CBr (configuration not stated)
- T/C (dose: 15.0 mg/kg/injection, schedule: Q01DX010 (ip), vehicle: Klucel (hydroxypropylcellulose) (HPC)): 29 % of control
- T/C (dose: 30.0 mg/kg/injection, schedule: Q01DX010 (ip), vehicle: Klucel (hydroxypropylcellulose) (HPC)): 13 % of control
- T/C (dose: 50.0 mg/kg/injection, schedule: Q04DX003 (ip), vehicle: Klucel (hydroxypropylcellulose) (HPC)): 93 % of control
- T/C [3]: 35 % of control
- T/C (dose: 60.0 mg/kg/injection, schedule: Q01DX010 (ip), vehicle: Klucel (hydroxypropylcellulose) (HPC)): -22 % of control
- T/C [5]: 61 % of control
- T/C [4]: 33 % of control
- T/C [6]: -44 % of control

Compound: NC1=NC(=O)N2CC12 (configuration not stated)
- T/C [7]: 106 % of control
- T/C (dose: 100.0 mg/kg/injection, schedule: Q04DX003 (sc), vehicle: saline): 116 % of control
- T/C (dose: 200.0 mg/kg/injection, schedule: Q04DX003 (sc), vehicle: saline): 86 % of control

Compound: CCCCCCSc1nc(COC(=O)NC)c(COC(=O)NC)n1C
- T/C (dose: 33.7 mg/kg/injection, schedule: Q04DX003 (ip), vehicle: saline): 100 % of control
- T/C (dose: 135.0 mg/kg/injection, schedule: Q04DX003 (ip), vehicle: saline): 23 % of control

Compound: CN(N=O)C(N)=O
- T/C (dose: 25.0 mg/kg/injection, schedule: Q04DX003 (sc), vehicle: saline): 80 % of control
- T/C (dose: 50.0 mg/kg/injection, schedule: Q04DX003 (sc), vehicle: saline with Tween-80): 9 % of control
- T/C [7]: 26 % of control

Compound: COc1cc(C(C)c2cc3c(cc2OCCO)OCO3)cc(OC)c1OC (configuration not stated)
- T/C (dose: 150.0 mg/kg/injection, schedule: Q04DX003 (ip), vehicle: saline): 69 % of control
- T/C (dose: 300.0 mg/kg/injection, schedule: Q04DX003 (ip), vehicle: saline): 65 % of control
- T/C (dose: 600.0 mg/kg/injection, schedule: Q04DX003 (ip), vehicle: saline): 21 % of control

Compound: CN(C)CN1C(=O)S/C(=C2\C(=O)N(CN(C)C)c3ccccc32)C1=O
- T/C [5]: 102 % of control
- T/C [6]: 100 % of control
- T/C (dose: 400.0 mg/kg/injection, schedule: Q04DX003 (ip), vehicle: Klucel (hydroxypropylcellulose) (HPC)): 80 % of control

Compound: COc1ccc2oc3c(ccc[n+]3C)c(=O)c2c1
- T/C (dose: 200.0 mg/kg/injection, schedule: Q04DX003 (ip), vehicle: saline with Tween-80): 116 % of control

Compound: COc1ccc(C[C@@H]2NC[C@@H](O)[C@@H]2OC(C)=O)cc1
- T/C [1]: 78 % of control
- T/C [2]: 110 % of control

Compound: C/C=C/C=C\C=C/C(O)CC(OP(=O)(O)O)C(C)(O)/C=C/C1CC=CC(=O)O1 (configuration not stated)
- T/C (dose: 6.0 mg/kg/injection, schedule: Q04DX003 (ip), vehicle: water): 86 % of control
- T/C (dose: 12.0 mg/kg/injection, schedule: Q04DX003 (ip), vehicle: water): 56 % of control
- T/C (dose: 24.0 mg/kg/injection, schedule: Q04DX003 (ip), vehicle: water): 50 % of control

Compound: COc1cccc2c1C(=N)c1c(O)c3c(c(O)c1C2=O)C[C@@](O)(C(C)=O)C[C@@H]3OC1CC(N)C(O)C(C)O1 (some centres not stated)
- T/C (dose: 4.0 mg/kg/injection, schedule: Q01DX010 (sc), vehicle: water): 51 % of control
- T/C (dose: 8.0 mg/kg/injection, schedule: Q01DX010 (sc), vehicle: water): 56 % of control
- T/C (dose: 16.0 mg/kg/injection, schedule: Q01DX010 (sc), vehicle: water): 56 % of control

Compound: CN(Cc1cnc2nc(N)nc(N)c2n1)c1c(Cl)cc(C(=O)NC(CCC(=O)O)C(=O)O)cc1Cl (configuration not stated)
- T/C (dose: 12.5 mg/kg/injection, schedule: Q01DX010 (sc), vehicle: Klucel (hydroxypropylcellulose) (HPC)): 64 % of control
- T/C (dose: 25.0 mg/kg/injection, schedule: Q01DX010 (sc), vehicle: Klucel (hydroxypropylcellulose) (HPC)): 25 % of control
- T/C (dose: 50.0 mg/kg/injection, schedule: Q01DX010 (sc), vehicle: Klucel (hydroxypropylcellulose) (HPC)): -67 % of control

Compound: CO[C@@]12[C@@H]3N[C@@H]3CN1C1=C(C(=O)C(N3CCCC3)=C(C)C1=O)[C@@H]2COC(N)=O
- T/C (dose: 1.5 mg/kg/injection, schedule: Q04DX003 (ip), vehicle: saline with Tween-80): 6 % of control and 12 % of control
- T/C (dose: 12.0 mg/kg/injection, schedule: Q04DX003 (ip), vehicle: saline with Tween-80): -98 % of control

Compound: NC(=S)N/N=C/c1ccc(O)cn1
- T/C (dose: 100.0 mg/kg/injection, schedule: Q04DX003 (sc), vehicle: saline with Tween-80): 88 % of control
- T/C (dose: 200.0 mg/kg/injection, schedule: Q04DX003 (sc), vehicle: saline with Tween-80): 101 % of control
- T/C (dose: 400.0 mg/kg/injection, schedule: Q04DX003 (sc), vehicle: saline with Tween-80): 92 % of control

Compound: COC1C(CO)OC(n2c3c(Cl)cccc3c3c4c(c5c6cccc(Cl)c6[nH]c5c32)C(=O)NC4=O)C(O)C1O (configuration not stated)
- T/C (dose: 100.0 mg/kg/injection, schedule: Q04DX003 (ip), vehicle: distilled water + Tween-80): 69 % of control
- T/C (dose: 200.0 mg/kg/injection, schedule: Q04DX003 (ip), vehicle: distilled water + Tween-80): 43 % of control
- T/C (dose: 400.0 mg/kg/injection, schedule: Q04DX003 (ip), vehicle: distilled water + Tween-80): 21 % of control
- T/C (dose: 800.0 mg/kg/injection, schedule: Q04DX003 (ip), vehicle: distilled water + Tween-80): 30 % of control

Compound: Nc1ccc(Cn2ccc3c4c(N)nc(N)nc4ccc32)cc1
- T/C (dose: 18.75 mg/kg/injection, schedule: Q04DX003 (sc), vehicle: saline with Tween-80): 80 % of control
- T/C (dose: 37.5 mg/kg/injection, schedule: Q04DX003 (sc), vehicle: saline with Tween-80): 75 % of control

Compound: COC(=O)CC(N)C(=O)O (configuration not stated)
- T/C (dose: 300.0 mg/kg/injection, schedule: Q04DX003 (sc), vehicle: saline with Tween-80): 78 % of control
- T/C (dose: 600.0 mg/kg/injection, schedule: Q04DX003 (sc), vehicle: saline with Tween-80): 121 % of control
- T/C (dose: 1200.0 mg/kg/injection, schedule: Q04DX003 (sc), vehicle: saline with Tween-80): 99 % of control
- T/C (dose: 2400.0 mg/kg/injection, schedule: Q04DX003 (sc), vehicle: saline with Tween-80): 101 % of control

Compound: Cc1nn(CCO)c(C)c1N=[N+]([O-])c1c(C)nn(CCO)c1C
- T/C (dose: 300.0 mg/kg/injection, schedule: Q04DX003 (sc), vehicle: Klucel (hydroxypropylcellulose) (HPC)): 109 % of control
- T/C (dose: 600.0 mg/kg/injection, schedule: Q04DX003 (sc), vehicle: Klucel (hydroxypropylcellulose) (HPC)): 85 % of control
- T/C (dose: 1200.0 mg/kg/injection, schedule: Q04DX003 (sc), vehicle: Klucel (hydroxypropylcellulose) (HPC)): 102 % of control
- T/C (dose: 2400.0 mg/kg/injection, schedule: Q04DX003 (sc), vehicle: Klucel (hydroxypropylcellulose) (HPC)): 90 % of control
